Experimental data as given in PubChem BioAssay AID1645871.

Conditions: pampa; pH 5.0; 30.0 min; 50.0 µM

Compound: CCOc1ccc(CCNC(=O)c2cccc(C(=O)c3ccccc3)c2)cc1OCC
- Papp: > 1000 ×10⁻⁶ cm/s

Compound: CCCCn1cc2c(c1-c1ccc(Br)cc1)c(=O)n(C)c(=O)n2C
- Papp: > 1000 ×10⁻⁶ cm/s

Compound: COc1ccccc1CNS(=O)(=O)c1ccc(-c2cnc(C3CC3)o2)cc1
- Papp: > 1000 ×10⁻⁶ cm/s

Compound: CCOc1cc(CNc2ccc(O)cc2)ccc1OCc1ccc(Cl)cc1
- Papp: 187 ×10⁻⁶ cm/s

Compound: COc1ccc(CN2CCNc3cc(Nc4ccccc4)ncc3C2)cc1O
- Papp: 3.07 ×10⁻⁶ cm/s

Compound: Cn1nnnc1Sc1ncnc2scc(-c3cc4ccccc4o3)c12
- Papp: 52.8 ×10⁻⁶ cm/s

Compound: COc1ccc(C(=O)NC2CCCc3c2[nH]c2c(Cl)cccc32)cc1OC (stereo not given)
- Papp: 483 ×10⁻⁶ cm/s

Compound: CCOC(=O)c1[nH]c(C)c(CCC(=O)N2CCN(c3cc(C)ccc3C)CC2)c1C
- Papp: > 1000 ×10⁻⁶ cm/s

Compound: Fc1ccc(CNc2cc3c(cn2)CN(Cc2ccncc2)CCN3)cc1
- Papp: 14.3 ×10⁻⁶ cm/s

Compound: CN(C)CCCn1cc(C2=C(c3c[nH]c4ccccc34)C(=O)NC2=O)c2ccccc21
- Papp: 39.3 ×10⁻⁶ cm/s

Compound: COc1cc(Cl)c(C)cc1Nc1c2c(nc3ccccc13)CCC2
- Papp: > 1000 ×10⁻⁶ cm/s

Compound: CC(C(O)c1ccc(O)cc1)N1CCC(Cc2ccccc2)CC1 (stereo not given)
- Papp: 40.6 ×10⁻⁶ cm/s

Compound: COC(=O)[C@@H]1C[C@H](OC(C)=O)C(=O)[C@H]2[C@@]1(C)CC[C@H]1C(=O)O[C@H](c3ccoc3)C[C@]21C
- Papp: 381 ×10⁻⁶ cm/s

Compound: CN(C(=O)CSc1nc2ccc(NC(=O)c3ccc(F)cc3)cc2s1)c1ccccc1
- Papp: 901 ×10⁻⁶ cm/s

Compound: CCCCNC(=O)CN1CCN(c2ncc(NC(=O)c3ccc(Cl)cc3)cc2C(=O)O)CC1
- Papp: 1.92 ×10⁻⁶ cm/s

Compound: COC(=O)c1ccc(O)c2ncc(N3CCN(C)CC3)cc12
- Papp: 80.1 ×10⁻⁶ cm/s

Compound: O=C(NC1CC1)C1CCCN1C(=O)c1cccc(-c2ccccn2)c1 (stereo not given)
- Papp: 76.5 ×10⁻⁶ cm/s

Compound: COc1c(O)cc2c(c1OC)-c1ccc(SC)c(=O)cc1C(NC(C)=O)CC2 (stereo not given)
- Papp: 20.7 ×10⁻⁶ cm/s

Compound: CCc1ccc(-n2nc(C)c3c2NC(=O)CSC3c2ccccc2C)cc1 (stereo not given)
- Papp: 707 ×10⁻⁶ cm/s

Compound: CCn1ncc(NC(=O)Cn2ncc3cc(-c4cccc(OC)c4)ccc32)n1
- Papp: 853 ×10⁻⁶ cm/s

Compound: Cc1ccc(S(=O)(=O)Nc2nc3ccc(C)cc3nc2Nc2ccc3c(c2)OCO3)cc1
- Papp: 334 ×10⁻⁶ cm/s

Compound: NCC(=O)Nc1cncc(-c2nn3c(=O)cc(N4CCNCC4)nc3s2)c1
- Papp: 1.07 ×10⁻⁶ cm/s

Compound: COc1cc(NC(=O)c2nc3ccccc3n(C)c2=O)cc(OC)c1OC
- Papp: 151 ×10⁻⁶ cm/s

Compound: COc1ccc(C2c3c(oc4ccc(C)cc4c3=O)C(=O)N2CCCN2CCOCC2)cc1OC (stereo not given)
- Papp: 19.2 ×10⁻⁶ cm/s

Compound: COc1ccc(NC(=O)CCCc2nnc3n(CCC(C)C)c(=O)c4sccc4n23)cc1Cl
- Papp: > 1000 ×10⁻⁶ cm/s

Compound: O=C(Nc1cccnc1)c1cccs1
- Papp: 181 ×10⁻⁶ cm/s

Compound: O=C(NCCCNc1nc(Nc2cccc(NC(=O)N3CCCC3)c2)ncc1I)c1cccs1
- Papp: 234 ×10⁻⁶ cm/s

Compound: CSc1ccccc1N1CCN(CCCCCC(=O)NC2CCCc3ccccc32)CC1 (stereo not given)
- Papp: 628 ×10⁻⁶ cm/s

Compound: CCC(CC)c1cc([C@H]2CN3CC[C@H]2C[C@@H]3CNC(=O)COc2ccccc2)nc(-c2ccncc2)n1
- Papp: 374 ×10⁻⁶ cm/s

Compound: CCC(CC)C(=O)NC[C@@H]1C=C(C)[C@H](Cc2nc3c(C)cccc3[nH]2)C[C@H]1C(C)C
- Papp: > 1000 ×10⁻⁶ cm/s

Compound: Cc1ccc(-n2ncc3c(NCCCn4ccnc4)ncnc32)cc1Cl
- Papp: 559 ×10⁻⁶ cm/s

Compound: COc1cc2c(Nc3ccc(Br)cc3F)ncnc2cc1OCC1CCN(C)CC1
- Papp: 97.3 ×10⁻⁶ cm/s

Compound: O=C(Nc1ccc(Cl)cc1)C(NS(=O)(=O)c1cccs1)c1ccccc1 (stereo not given)
- Papp: 443 ×10⁻⁶ cm/s

Compound: COC(=O)c1cccc(NC(=O)c2cnc(-c3ccc(F)cc3)nc2-c2ccncc2)c1
- Papp: 671 ×10⁻⁶ cm/s

Compound: CNc1nc2c(s1)C(c1ccc(Cl)cc1)CC(=O)N2 (stereo not given)
- Papp: 204 ×10⁻⁶ cm/s

Compound: COc1ccc(OC)c(-n2c3c(cc(-c4nc(-c5ccc(Cl)cc5)cs4)c2=O)C(=O)CC(C)(C)C3)c1
- Papp: 331 ×10⁻⁶ cm/s

Compound: COc1cc([C@@H]2c3cc4c(cc3[C@H](O)[C@H]3COC(=O)[C@H]23)OCO4)cc(OC)c1OC
- Papp: 262 ×10⁻⁶ cm/s

Compound: COCCNC(=O)[C@H]1C[C@H](Oc2ccccc2)CN1Cc1ccc2[nH]ccc2c1
- Papp: 186 ×10⁻⁶ cm/s

Compound: Cc1cccc(-c2cc(NC(=O)c3ccccc3C)n(-c3ccccc3)n2)c1
- Papp: 786 ×10⁻⁶ cm/s

Compound: CNc1sc(-c2cccc3ccccc23)nc1C#N
- Papp: 268 ×10⁻⁶ cm/s

Compound: Cc1cc(C)nc(NC(=S)N2CCN(Cc3ccc(C(F)(F)F)cc3)CC2)c1
- Papp: > 1000 ×10⁻⁶ cm/s

Compound: CC(=O)NCCNC[C@@H]1C=C(C)[C@H](Cc2nnc(-c3ccccc3)o2)C[C@H]1C(C)C
- Papp: 25.8 ×10⁻⁶ cm/s

Compound: O=C(Cc1c[nH]c2ncc(-c3ccc(Cl)cc3)cc12)NCc1cccnc1
- Papp: 818 ×10⁻⁶ cm/s

Compound: COc1ccc(C(=O)NC2CCCc3c2[nH]c2ccccc32)cc1OC (stereo not given)
- Papp: 238 ×10⁻⁶ cm/s

Compound: COc1ccc(-n2nc(C3CCCN(C(=O)c4cccc(OC)c4)C3)[nH]c2=O)cc1 (stereo not given)
- Papp: 431 ×10⁻⁶ cm/s

Compound: CNC(=O)c1ccc(C)c(-n2c(C)cc(OCc3ccc(F)cc3F)c(Br)c2=O)c1
- Papp: 627 ×10⁻⁶ cm/s

Compound: CC(C)(C)CN1CCNc2cc(Nc3ccccc3)ncc2C1
- Papp: 42.2 ×10⁻⁶ cm/s

Compound: CCC(Sc1nc2ccccc2c2nc(CCc3c(C)n[nH]c3C)nn12)C(=O)Nc1ccc(F)cc1 (stereo not given)
- Papp: 205 ×10⁻⁶ cm/s

Compound: CCN1CCN(c2ncc3c(n2)CCN(Cc2cc(Br)cs2)C3)CC1
- Papp: 77.1 ×10⁻⁶ cm/s

Compound: NC(=O)Nc1cc(-c2ccc(CN3CCOCC3)cc2)sc1C(N)=O
- Papp: 1.19 ×10⁻⁶ cm/s

Compound: CCc1ccccc1-n1c(SCC(=O)Nc2ccc(C)cc2)nc2n[nH]c(C)c2c1=N
- Papp: > 1000 ×10⁻⁶ cm/s

Compound: Cn1cnc2c(F)c(Nc3ccc(Br)cc3Cl)c(C(=O)NOCCO)cc21
- Papp: 151 ×10⁻⁶ cm/s

Compound: COc1ccc(C)cc1Nc1c2c(nc3ccccc13)CCC2
- Papp: 293 ×10⁻⁶ cm/s

Compound: Clc1ccc(C2(c3ccc(-c4cn[nH]c4)cc3)CCNCC2)cc1
- Papp: 3.6 ×10⁻⁶ cm/s

Compound: Cc1ccc(NC(=O)NCC2CCN(Cc3cccc(Cl)c3)CC2)cc1Cl
- Papp: > 1000 ×10⁻⁶ cm/s

Compound: Cc1ccc(NC(=O)c2cc(-c3ccc[nH]3)n[nH]2)cc1F
- Papp: 235 ×10⁻⁶ cm/s

Compound: NC(=O)C1CCN(c2nccc(-c3ccc4c(c3)OCCO4)n2)CC1
- Papp: 191 ×10⁻⁶ cm/s

Compound: COc1ccc(-c2ccc3ncc4c(c3c2)n(-c2ccc(N3CCNCC3)c(C(F)(F)F)c2)c(=O)n4C)cn1
- Papp: 153 ×10⁻⁶ cm/s

Compound: Cc1ccc(C(=O)Nc2ccc3oc(-c4cccnc4)nc3c2)cc1[N+](=O)[O-]
- Papp: 693 ×10⁻⁶ cm/s

Compound: COc1cccc(CNC(=O)CCCn2nc(C)c3c(C)n(-c4ccc(C)cc4)nc3c2=O)c1OC
- Papp: 446 ×10⁻⁶ cm/s

Compound: COc1ccc(-c2ccc3ncc(Nc4cccnc4OC)n3n2)cn1
- Papp: 758 ×10⁻⁶ cm/s

Compound: COC[C@@H]1CN(C(=O)c2n[nH]c3ccccc23)C[C@H]1c1nc(C)no1
- Papp: 37.8 ×10⁻⁶ cm/s

Compound: C[C@H]1CN(C(=O)c2nn(C)c3ccccc23)C[C@@H]1c1nc(-c2ccncc2)no1
- Papp: 667 ×10⁻⁶ cm/s

Compound: O=C(Nc1ccc(OC(F)(F)Cl)cc1)c1cnc(N2CC[C@@H](O)C2)c(-c2ccn[nH]2)c1
- Papp: 16.8 ×10⁻⁶ cm/s

Compound: Cc1noc(C)c1-c1cc(-c2ccc3c(c2)C(=O)NC3)cn2cncc12
- Papp: 64.5 ×10⁻⁶ cm/s

Compound: Cc1ccc(C(=O)N2CCc3sc(C(=O)NC(C)c4ccccc4)cc3C2)cc1 (stereo not given)
- Papp: 425 ×10⁻⁶ cm/s

Compound: O=C(c1ccc2c(c1)OCO2)N1CCC(Cc2nc(-c3cnccn3)no2)CC1
- Papp: 44 ×10⁻⁶ cm/s

Compound: Cc1ccccc1N(C)C1CN([S+](=O)([O-])c2cccc(C(F)(F)F)c2)C1
- Papp: 924 ×10⁻⁶ cm/s

Compound: CC1=C(C(=O)Nc2nc3ccccc3s2)C(c2[nH]ncc2Cl)N=C(Nc2nc3ccccc3o2)N1 (stereo not given)
- Papp: 15.6 ×10⁻⁶ cm/s

Compound: COc1ccc(-c2[nH]nc3ncc(-c4ccc(CO)cc4)nc23)cc1F
- Papp: 428 ×10⁻⁶ cm/s

Compound: CC(C)c1ccccc1-c1nc2c(c(NCc3ccc(-c4cccnc4)cc3)n1)CNC2
- Papp: 98.7 ×10⁻⁶ cm/s

Compound: CCOc1ccc(C2c3c(oc4ccc(C)cc4c3=O)C(=O)N2CCCN(C)C)cc1 (stereo not given)
- Papp: 29.6 ×10⁻⁶ cm/s

Compound: COc1ccccc1CN1CCNc2cc(Nc3ccccc3)ncc2C1
- Papp: 22.3 ×10⁻⁶ cm/s

Compound: COc1cc(NC(=O)c2cc(-c3ccccc3O)no2)cc(OC)c1OC
- Papp: > 1000 ×10⁻⁶ cm/s

Compound: CCOC(=O)C1=C(CN(CC)Cc2ccccc2)NC(=O)NC1c1ccc(OC(C)C)cc1 (stereo not given)
- Papp: > 1000 ×10⁻⁶ cm/s
